Values of other authors in patent publication US7872019B2, “Polymorphs and amorphous form of (S)-(+)-clopidogrel bisulfate” (Cadila Healthcare Limited, priority 2003, dated 2011).

Key:
platelet aggregation = settings: comparison of the two enantiomers, in words
[1] = comparison of the two enantiomers, in words

| Structure (SMILES) | antiagregant platelet activity (platelet aggregation) | tolerance [1] |
| --- | --- | --- |
| COC(=O)[C@@H](c1ccccc1Cl)N1CCc2sccc2C1 (single isomer, unassigned) [levorotatory enantiomer of (I)] | less active | less tolerated |
| COC(=O)[C@H](c1ccccc1Cl)N1CCc2sccc2C1 [dextrorotatory enantiomer of formula (I) of Clopidogrel] | excellent antiagregant platelet activity |  |
